Numbers after ± are expanded uncertainties.
Assay: refractive index (other wavelength) (dimensionless); xn = mol fraction of the nth substance listed
Settings: 101.33 kPa, Liquid, Wavelength=632.8 nm, Standard Abbe refractometry

## COC(=O)CCCCC(=O)OC [dimethyl 1,6-hexanedioate] + CCCCCCC
289.5 K, x1 = 1
  refractive index: 1.4287 ± 0.0004
291.65 K, x1 = 1
  refractive index: 1.4279 ± 0.0004
292.22 K, x1 = 0.1018
  refractive index: 1.3909 ± 0.0005
292.85 K, x1 = 0.5999
  refractive index: 1.412 ± 0.0005
293.07 K, x1 = 0.7009
  refractive index: 1.4159 ± 0.0005
293.2 K, x1 = 0.8979
  refractive index: 1.4236 ± 0.0005
293.27 K, x1 = 0.1018
  refractive index: 1.3904 ± 0.0005
293.28 K, x1 = 0.8048
  refractive index: 1.42 ± 0.0005
293.87 K, x1 = 0.5999
  refractive index: 1.4115 ± 0.0005
294.11 K, x1 = 0.8979
  refractive index: 1.4232 ± 0.0005
294.12 K, x1 = 0.7009
  refractive index: 1.4155 ± 0.0005
294.22 K, x1 = 0.8048
  refractive index: 1.4196 ± 0.0005
294.37 K, x1 = 0.1018
  refractive index: 1.3898 ± 0.0005
294.86 K, x1 = 0.5999
  refractive index: 1.4111 ± 0.0005
294.9 K, x1 = 1
  refractive index: 1.4265 ± 0.0004
294.96 K, x1 = 0.2007
  refractive index: 1.398 ± 0.0005
295.01 K, x1 = 0.8979
  refractive index: 1.4228 ± 0.0005
295.12 K, x1 = 0.8048
  refractive index: 1.4192 ± 0.0005
295.15 K, x1 = 0.7009
  refractive index: 1.415 ± 0.0005
295.39 K, x1 = 0.1018
  refractive index: 1.3893 ± 0.0005
295.61 K, x1 = 0.3992
  refractive index: 1.402 ± 0.0004
295.8 K, x1 = 0.4976
  refractive index: 1.4062 ± 0.0005
295.83 K, x1 = 0.5999
  refractive index: 1.4107 ± 0.0005
295.94 K, x1 = 0.8979
  refractive index: 1.4224 ± 0.0005
295.95 K, x1 = 0.2007
  refractive index: 1.3975 ± 0.0005
296.09 K, x1 = 0.8048
  refractive index: 1.4188 ± 0.0005
296.15 K, x1 = 0.7009
  refractive index: 1.4146 ± 0.0005
296.45 K, x1 = 0.1018
  refractive index: 1.3888 ± 0.0007
296.65 K, x1 = 0.3992
  refractive index: 1.4016 ± 0.0004
296.81 K, x1 = 0.5999
  refractive index: 1.4103 ± 0.0005
296.89 K, x1 = 0.8979
  refractive index: 1.422 ± 0.0005
296.9 K, x1 = 0.4976
  refractive index: 1.4056 ± 0.0005
296.91 K, x1 = 0.2007
  refractive index: 1.3971 ± 0.0005
296.94 K, x1 = 1
  refractive index: 1.4257 ± 0.0004
297.08 K, x1 = 0.8048
  refractive index: 1.4184 ± 0.0005
297.23 K, x1 = 0.7009
  refractive index: 1.4142 ± 0.0005
297.45 K, x1 = 0.1018
  refractive index: 1.3883 ± 0.0007
297.64 K, x1 = 0.3992
  refractive index: 1.4011 ± 0.0004
297.81 K, x1 = 0.8979
  refractive index: 1.4216 ± 0.0005
297.87 K, x1 = 0.5999
  refractive index: 1.4098 ± 0.0005
297.95 K, x1 = 0.4976
  refractive index: 1.4052 ± 0.0005
298.02 K, x1 = 0.2007
  refractive index: 1.3965 ± 0.0004
298.02 K, x1 = 0.8048
  refractive index: 1.418 ± 0.0005
298.15 K, x1 = 0.7009
  refractive index: 1.4138 ± 0.0005
298.66 K, x1 = 0.3992
  refractive index: 1.4007 ± 0.0005
298.92 K, x1 = 0.4976
  refractive index: 1.4048 ± 0.0005
299.11 K, x1 = 0.2007
  refractive index: 1.396 ± 0.0004
299.7 K, x1 = 0.3992
  refractive index: 1.4002 ± 0.0005
299.93 K, x1 = 0.4976
  refractive index: 1.4043 ± 0.0005
300.15 K, x1 = 0.2007
  refractive index: 1.3955 ± 0.0004
300.67 K, x1 = 0.3992
  refractive index: 1.3997 ± 0.0005
300.93 K, x1 = 0.4976
  refractive index: 1.4039 ± 0.0005
301.21 K, x1 = 0.2007
  refractive index: 1.395 ± 0.0004
301.74 K, x1 = 0.3992
  refractive index: 1.3992 ± 0.0005
301.98 K, x1 = 0.4976
  refractive index: 1.4034 ± 0.0005
